Experimental data from the NIST ThermoML archive (doi:10.1016/j.jct.2008.03.011).
Numbers after ± are expanded uncertainties.

Key:
[1] = refractive index (Na D-line) (dimensionless); xn = mol fraction of the nth substance listed; settings: 101 kPa, Liquid
[2] = xn = mol fraction of the nth substance listed; settings: 101 kPa, Liquid

CCCCCCCC[n+]1ccn(C)c1.F[P-](F)(F)(F)(F)F [1-octyl-3-methylimidazolium hexafluorophosphate] + CCC(C)=O
Settings	mass density, 293.15 K [kg/m3]	mass density, 298.15 K [kg/m3]	mass density, 303.15 K [kg/m3]	refractive index, 293.15 K	refractive index, 298.15 K	refractive index, 303.15 K	speed of sound, 293.15 K [m/s]	speed of sound, 298.15 K [m/s]	speed of sound, 303.15 K [m/s]
[1], x1 = 0.0475	–	–	–	1.38881 ± 0.0012	1.38663 ± 0.0012	1.38505 ± 0.0012	–	–	–
[1], x1 = 0.0972	–	–	–	1.39567 ± 0.0012	1.39445 ± 0.0012	1.39284 ± 0.0012	–	–	–
[1], x1 = 0.1918	–	–	–	1.40468 ± 0.0013	1.40289 ± 0.0013	1.40124 ± 0.0013	–	–	–
[1], x1 = 0.2947	–	–	–	1.41058 ± 0.0013	1.40877 ± 0.0013	1.40709 ± 0.0013	–	–	–
[1], x1 = 0.3949	–	–	–	1.41468 ± 0.0013	1.41302 ± 0.0013	1.41133 ± 0.0013	–	–	–
[1], x1 = 0.4983	–	–	–	1.41774 ± 0.0013	1.41614 ± 0.0013	1.41466 ± 0.0013	–	–	–
[1], x1 = 0.5752	–	–	–	1.41934 ± 0.0013	1.41779 ± 0.0013	1.41645 ± 0.0013	–	–	–
[1], x1 = 0.6815	–	–	–	1.42126 ± 0.0013	1.41979 ± 0.0013	1.41825 ± 0.0013	–	–	–
[1], x1 = 0.7683	–	–	–	1.42239 ± 0.0013	1.42095 ± 0.0013	1.41949 ± 0.0013	–	–	–
[1], x1 = 0.8315	–	–	–	1.42355 ± 0.0013	1.42198 ± 0.0013	1.42051 ± 0.0013	–	–	–
[1], x1 = 0.9315	–	–	–	1.42474 ± 0.0013	1.42337 ± 0.0013	1.42199 ± 0.0013	–	–	–
[1], x1 = 1	–	–	–	1.4244 ± 0.0013	1.42302 ± 0.0013	1.42165 ± 0.0013	–	–	–
[2], x1 = 0.0475	869.8 ± 0.6	864.3 ± 0.6	859.6 ± 0.7	–	–	–	1243 ± 8	1224 ± 8	1195 ± 7
[2], x1 = 0.0972	923.7 ± 0.6	918.9 ± 0.6	914.1 ± 0.6	–	–	–	1268 ± 8	1249 ± 8	1229 ± 8
[2], x1 = 0.1918	1002 ± 0.5	997.6 ± 0.5	993.2 ± 0.5	–	–	–	1303 ± 8	1286 ± 8	1269 ± 8
[2], x1 = 0.2947	1063.1 ± 0.6	1058.8 ± 0.6	1054.6 ± 0.6	–	–	–	1331 ± 8	1315 ± 8	1300 ± 8
[2], x1 = 0.3949	1107.9 ± 0.7	1103.7 ± 0.7	1099.5 ± 0.7	–	–	–	1352 ± 8	1337 ± 8	1323 ± 8
[2], x1 = 0.4983	1143.6 ± 0.7	1139.4 ± 0.7	1135.3 ± 0.7	–	–	–	1368 ± 8	1354 ± 8	1340 ± 8
[2], x1 = 0.5752	1164.9 ± 0.8	1160.9 ± 0.8	1156.9 ± 0.8	–	–	–	1378 ± 8	1364 ± 8	1351 ± 8
[2], x1 = 0.6815	1189.5 ± 0.9	1185.5 ± 0.9	1181.5 ± 0.8	–	–	–	1389 ± 8	1376 ± 8	1363 ± 8
[2], x1 = 0.7683	1205.8 ± 0.9	1202 ± 0.9	1198.3 ± 0.9	–	–	–	1399 ± 8	1386 ± 8	1372 ± 8
[2], x1 = 0.8315	1216.4 ± 0.9	1212.8 ± 0.9	1209.1 ± 0.9	–	–	–	1406 ± 8	1392 ± 8	1379 ± 8
[2], x1 = 0.9315	1230.9 ± 1	1227.5 ± 1	1223.9 ± 1	–	–	–	1425 ± 9	1410 ± 8	1395 ± 8
[2], x1 = 1	1239.6 ± 1.1	1235.7 ± 1	1231.9 ± 1	–	–	–	1424 ± 9	1408 ± 8	1393 ± 8

CCC(C)=O [butanone] + CCCCCCCC[n+]1ccn(C)c1.F[P-](F)(F)(F)(F)F
x2 = 0
Settings	mass density, 293.15 K [kg/m3]	mass density, 298.15 K [kg/m3]	mass density, 303.15 K [kg/m3]	refractive index, 293.15 K	refractive index, 298.15 K	refractive index, 303.15 K	speed of sound, 293.15 K [m/s]	speed of sound, 298.15 K [m/s]	speed of sound, 303.15 K [m/s]
[1]	–	–	–	1.37879 ± 0.0012	1.37618 ± 0.0012	1.37355 ± 0.0012	–	–	–
[2]	805.6 ± 0.7	799.7 ± 0.7	794.9 ± 0.8	–	–	–	1212 ± 8	1192 ± 7	1163 ± 7

C1CCCCC1 [cyclohexane] + CCC(C)=O
x1 = 1
Settings	refractive index, 293.15 K	refractive index, 298.15 K	refractive index, 303.15 K	speed of sound, 293.15 K [m/s]	speed of sound, 298.15 K [m/s]	speed of sound, 303.15 K [m/s]
[1], Standard Abbe refractometry	1.42633 ± 0.00031	1.42354 ± 0.00031	1.42073 ± 0.00031	–	–	–
[2], Sing-around technique in a fixed-path interferometer	–	–	–	1279 ± 2	1256 ± 2	1219 ± 2

[2], x1 = 1
Settings	mass density [kg/m3]
293.15 K	778.4 ± 0.5
298.15 K	773.8 ± 0.5
303.15 K	769 ± 0.5
